Tested on: PC3 prostate cancer viability, PrestoBlue fluorescence
Experiment: growth inhibition of PC3 cells, dose response, mTOR inhibitor project (AID 1224902)

EC50: 37 nM
Structure (SMILES): CCOC(Cn1nc(-c2ccc3oc(N)nc3c2)c2c(N)ncnc21)OCC

Reference: PubChem BioAssay AID1224902
